Laboratory results as given in patent US20100183600A1, “RAF Inhibitors and Their Uses” (ARQULE, INC., priority 2008, published 2010).

Key:
Test in all cases: Cell growth inhibition assay (MTS)
Type in all cases: cell-based
THP-1 = conditions: Homo sapiens; THP-1, acute monocytic leukemia
Summary of the method: (§1)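 IC50s come from a 72-hour treatment of cells plated at 1-5×10^3 per well. Viability is determined by MTS reduction (4 hr, with PMS) measured as A492.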

WIDR = conditions: Homo sapiens, colorectal adenocarcinoma
Summary of the method: as §1

SW780 = conditions: Homo sapiens; SW780, bladder
Summary of the method: as §1

Structure (SMILES): Cn1ccc(S(=O)(=O)N2CCC[C@@H](Nc3nccc(-c4c(-c5cccc(OCOP(=O)(O)O)c5)nc5occn45)n3)C2)n1 [Compound 19, (R)-(3-(5-(2-(1-(1-methyl-1H-pyrazol-3-ylsulfonyl)piperidin-3-ylamino)pyrimidin-4-yl)imidazo[2,1-b]oxazol-6-yl)phenoxy)methyl dihydrogen phosphate]
- GI50 (THP-1): 10.3 µM
- GI50 (WIDR): 20.2 µM
- GI50 (SW780): 9.1 µM
